Measurements published in patent US11559510B2, “Isoflavonoid composition with improved pharmacokinetics” (NOXOPHARM LIMITED, priority 2016, dated 2023).
Read-outs that look alike come from different tables or passages of the source.

Experiment: Plasma pharmacokinetic studies of idronoxil in rats (rectal in cocoa butter vs intestinal in lipid emulsion)
Assay type: in vivo, Male Sprague-Dawley rats
Conditions: for Peak Area in rat plasma, Rat 2 / Peak Area in rat plasma, Rat 1 / Peak Area in rat plasma, Rat 3 / half-life / concentration at 0 h / concentration at 1 h / concentration at 2 h: 10 mg/kg; for half-life / concentration at 0 h / concentration at 1 h / concentration at 2 h: male, Sprague-Dawley, rat, plasma; for concentration at 0 h / concentration at 1 h / concentration at 2 h: other: intraduodenal infusion, Intestinal delivery (intraduodenal infusion)
Experimental: The objective of this study in rodents is to determine the plasma pharmacokinetics of idronoxil after rectal delivery and intestinal delivery in lipids (cocoa butter or emulsion).
Part (1); n=3 rats: Rectal administration of idronoxil in cocoa butter liquid formulation, collection of plasma.
Part (2); n=3 rats: Intestinal administration (intraduodenal infusion) of idronoxil in lipid formulation, collection of plasma.
3 mg idronoxil per rat (equivalent to 10 mg/kg idronoxil).
Preparation of lipid formulation for intestinal dosing: Briefly, 3 mg of idronoxil, 80 mg oleic acid and 50 mg Tween 80 were mixed in a glass vial as the lipid phase. An aqueous phase consisting of 5.6 mL phosphate buffered saline (PBS, pH 7.4) was subsequently added to the lipid phase and the formulation emulsified by ultrasonication with a Misonix XL 2020 ultrasonic processor equipped with a 3.2-mm microprobe tip running at an amplitude of 240 μm and a frequency of 20 kHz for 4 min at room temperature.
Dose administration: The lipid formulations were infused into the duodenum of the rats at 2.8 mL/h for 2 h. After that, normal saline was infused into the duodenum at 2.8 mL/h for the remainder of the experiment to hydrate the animals.
Preparation of cocoa butter formulation for rectal dosing: Briefly, 100 mg of the cocoa butter was weighed into a homogenizer glass tube and melted at 32 degrees Celsius. 3 mg of idronoxil was then added and the formulation mixed manually with the homogenizer.
Dose administration: The warmed/melted cocoa butter formulations were dosed into the rectum via placing the tip of a 3 cm plastic mouse oral gavage device attached to a 1 ml plastic syringe exactly 1 cm into the rectum. The formulation was dosed over 15 sec. After that, normal saline was infused into the duodenum at 2.8 mL/h for the remainder of the experiment to hydrate the animals.
Male Sprague-Dawley rats (n=3 per group, body weight 300±40 g) were used in the study. Each animal was fasted overnight prior to surgical cannulation of the carotid artery and duodenum.
The rats were anaesthetized (using isoflurane anesthesia), placed on a heated pad at 37° C. and cannulas were inserted into the duodenum (for dosing of lipid formulation and rehydration) and carotid artery (for blood collection).
Post-surgery, rats were re-hydrated for 0.5 h via intraduodenal infusion of normal saline at 2.8 mL/h prior to dosing via intraduodenal or rectal route.
Plasma collection: Plasma samples were collected for 8 h into Eppendorf tubes containing 5 μL of 1,000 IU/mL heparin. Aliquots (20 μL) of each hourly collected samples were transferred into labelled 1.5 mL Eppendorf tubes. Aliquoted and original bulk samples were stored at −20° C. until analysis.
Sample analysis: Plasma concentrations of idronoxil were measured by the HMST-lab using a validated HPLC-MS/MS method. Briefly, LC-MS analysis was performed on a Shimadzu 8050 triple quadrupole mass spectrometer coupled with a Shimadzu Nexera X2 UHPLC. MS analysis was conducted in positive mode electrospray ionisation and quantitation of the analytes performed in MRM mode. The column employed was a Phenomenex Kinetex EVO C18 column (2.6 μm particle size, 50×2.1 mm i.d.) equipped with a Phenomenex Security Guard column with C18 packing material. The column was maintained at 40-C. The mobile phase consisted of 0.2% formic acid in water (Mobile Phase A) and 100% acetonitrile (Mobile Phase B). Separations were conducted using a flow rate of 0.4 mL/min and an injection volume of 6 μL. Samples were controlled in the autosampler at a temperature of 10° C.
Non-compartmental pharmacokinetic (PK) analysis: The elimination rate constant (slope), half-life (i.e., 0.693/k), and mean residence time (MRT) were calculated using excel. The area under the plasma-concentration time curves from time zero to 8 h (AUC0-8 h) were calculated using the trapezoid rule to the last measured time point.

[1] = Intestinal administration of idronoxil, lipid emulsion, 1 hrs
[2] = Intestinal administration of idronoxil, lipid emulsion, 2 hrs
[3] = Intestinal administration of idronoxil, lipid emulsion, 3 hrs
[4] = Intestinal administration of idronoxil, lipid emulsion, 4 hrs
[5] = Intestinal administration of idronoxil, lipid emulsion, 5 hrs
[6] = Intestinal administration of idronoxil, lipid emulsion, 6 hrs
[7] = Intestinal administration of idronoxil, lipid emulsion, 7 hrs
[8] = Intestinal administration of idronoxil, lipid emulsion, 8 hrs
[9] = Rectal administration of idronoxil, cocoa butter, 1 hrs
[10] = Rectal administration of idronoxil, cocoa butter, 2 hrs
[11] = Rectal administration of idronoxil, cocoa butter, 3 hrs
[12] = Rectal administration of idronoxil, cocoa butter, 4 hrs
[13] = Rectal administration of idronoxil, cocoa butter, 5 hrs
[14] = Rectal administration of idronoxil, cocoa butter, 6 hrs
[15] = Rectal administration of idronoxil, cocoa butter, 7 hrs
[16] = Rectal administration of idronoxil, cocoa butter, 8 hrs
[17] = intestinally-dosed rats compared with rectally-dosed rats
[18] = lipid emulsion, read-out: Idronoxil Plasma Concentration Mean
[19] = lipid emulsion, read-out: Idronoxil Plasma Concentration Rat 2
[20] = lipid emulsion, read-out: Idronoxil Plasma Concentration Rat 1

## Oc1ccc(C2=Cc3ccc(O)cc3OC2)cc1 [Idronoxil, 2H-1-Benzopyran-7-0,1,3-(4-hydroxyphenyl)]
Intestinal administration of idronoxil, lipid emulsion, 0 hrs
  Peak Area in rat plasma, Rat 2: 62,126
[1]
  Peak Area in rat plasma, Rat 1: 236,465
  Peak Area in rat plasma, Rat 2: 184,114
  Peak Area in rat plasma, Rat 3: 222,037
[2]
  Peak Area in rat plasma, Rat 1: 335,894
  Peak Area in rat plasma, Rat 2: 238,289
  Peak Area in rat plasma, Rat 3: 237,900
[3]
  Peak Area in rat plasma, Rat 1: 34,094
  Peak Area in rat plasma, Rat 2: 71,267
  Peak Area in rat plasma, Rat 3: 32,152
[4]
  Peak Area in rat plasma, Rat 1: 25,198
  Peak Area in rat plasma, Rat 2: 14,571
  Peak Area in rat plasma, Rat 3: 13,053
[5]
  Peak Area in rat plasma, Rat 1: 26,342
  Peak Area in rat plasma, Rat 2: 10,183
  Peak Area in rat plasma, Rat 3: 13,297
[6]
  Peak Area in rat plasma, Rat 1: 6,108
  Peak Area in rat plasma, Rat 2: 8,531
  Peak Area in rat plasma, Rat 3: 17,321
[7]
  Peak Area in rat plasma, Rat 1: 8,023
  Peak Area in rat plasma, Rat 2: 14,276
  Peak Area in rat plasma, Rat 3: 8,371
[8]
  Peak Area in rat plasma, Rat 1: 13,012
  Peak Area in rat plasma, Rat 2: 9,110
  Peak Area in rat plasma, Rat 3: 8,020
[9]
  Peak Area in rat plasma, Rat 1: 57,590
  Peak Area in rat plasma, Rat 2: 213,825
  Peak Area in rat plasma, Rat 3: 46,167
[10]
  Peak Area in rat plasma, Rat 1: 37,493
  Peak Area in rat plasma, Rat 2: 179,554
  Peak Area in rat plasma, Rat 3: 50,847
[11]
  Peak Area in rat plasma, Rat 1: 37,603
  Peak Area in rat plasma, Rat 2: 152,537
  Peak Area in rat plasma, Rat 3: 45,812
[12]
  Peak Area in rat plasma, Rat 1: 34,050
  Peak Area in rat plasma, Rat 2: 117,814
  Peak Area in rat plasma, Rat 3: 49,738
[13]
  Peak Area in rat plasma, Rat 1: 61,323
  Peak Area in rat plasma, Rat 2: 153,360
  Peak Area in rat plasma, Rat 3: 75,786
[14]
  Peak Area in rat plasma, Rat 1: 41,246
  Peak Area in rat plasma, Rat 2: 114,191
  Peak Area in rat plasma, Rat 3: 42,370
[15]
  Peak Area in rat plasma, Rat 1: 46,844
  Peak Area in rat plasma, Rat 2: 100,506
  Peak Area in rat plasma, Rat 3: 25,104
[16]
  Peak Area in rat plasma, Rat 1: 14,934
  Peak Area in rat plasma, Rat 2: 80,236
  Peak Area in rat plasma, Rat 3: 40,752
At 3 to 4 hours after administration
  amount of idronoxil observed in plasma, rectal relative to oral administration: 3 to 4 times
Idronoxil dosed orally (intestinal delivery model)
  time for which blood levels >20 ng/mL were achieved: about 3 hours
intestinally-dosed rats
  time from administration by which the bulk of the total exposure is completed: about 3 hours
[17]
  maximum concentration of free idronoxil: significantly greater
  proportion of drug metabolized by Phase 2 metabolism: considerably greater
Oral delivery (intestinal delivery model)
  half-life: ~45 min
Rectal idronoxil
  half-life: > 480 min
[18]
  concentration at 0 h: 33.8 ng/mL
  concentration at 1 h: 118 ng/mL
  concentration at 2 h: 158 ng/mL
[19]
  concentration at 0 h: 33.8 ng/mL
  concentration at 1 h: 114 ng/mL
[20]
  concentration at 1 h: 114 ng/mL
  concentration at 2 h: 200 ng/mL
Lipid emulsion, read-out: Idronoxil Plasma Concentration Rat 3
  concentration at 1 h: 128 ng/mL
